Results reported in US6706663B2, “Herbicidal 3-heterocyclic substituted benzisothiazole and benzisoxazole compounds” (Wyeth, priority 2000, dated 2004).

How the values were obtained:
[1] = system: ABUTH (Abutilon theophrasti); test: Postemergence herbicidal evaluation; type: in vivo, Medic.
Summary of the method: (§1)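 Visual 0–9 injury scores versus control plants, covering stand, vigour, malformation, size, chlorosis and general appearance, taken four to five weeks post-spray and averaged over replicate tests. Plants were sprayed at roughly two weeks old and held on greenhouse benches.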

[2] = system: AMBEL (Ambrosia artemisifolia); test: Postemergence herbicidal evaluation; type: in vivo, L.
Summary of the method: as §1

[3] = system: CASOB (Cassia obtusifolia); test: Postemergence herbicidal evaluation; type: in vivo, L.
Summary of the method: as §1

[4] = system: CHEAL (Chenopodium album); test: Postemergence herbicidal evaluation; type: in vivo, L.
Summary of the method: as §1

[5] = system: IPOHE (Ipomoea hederacea); test: Postemergence herbicidal evaluation; type: in vivo, (L.) Jacq.
Summary of the method: as §1

[6] = system: ECHCG (Echinochloa crus-galli); test: Postemergence herbicidal evaluation; type: in vivo, (L.) Beau
Summary of the method: as §1

ORYSAT (Rice, Tebonnet) [7] = test: Postemergence herbicidal evaluation; type: in vivo, Oryza sativa, (L.) Tebonnet
Summary of the method: as §1

[8] = system: TRZAWR (Wheat, Winter, cv Riband); test: Postemergence herbicidal evaluation; type: in vivo, Triticum aestivum
Summary of the method: as §1

ZEAMX (Corn, Field) = test: Postemergence herbicidal evaluation; type: in vivo, Zea mays, L.
Summary of the method: as §1

[9] = system: ABUTH (Abutilon theophrasti); test: Preemergence herbicidal evaluation; type: in vivo, Medic.; conditions: preemergence, rated 4-5 weeks after treatment
[10] = system: AMBEL (Ambrosia artemisifolia); test: Preemergence herbicidal evaluation; type: in vivo, L.; conditions: preemergence, rated 4-5 weeks after treatment
Summary of the method: (§2)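 Rating 0–9, visual, vs control; 4–5 wk after spraying seeded cups with compound in aq. acetone; conventional greenhouse care.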

[11] = system: CASOB (Cassia obtusifolia); test: Preemergence herbicidal evaluation; type: in vivo, L.; conditions: preemergence, rated 4-5 weeks after treatment
Summary of the method: as §2

[12] = system: CHEAL (Chenopodium album); test: Preemergence herbicidal evaluation; type: in vivo, L.; conditions: preemergence, rated 4-5 weeks after treatment
Summary of the method: as §2

ORYSAT (Rice, Tebonnet) [13] = test: Preemergence herbicidal evaluation; type: in vivo, Oryza sativa, (L.) Tebonnet; conditions: preemergence, rated 4-5 weeks after treatment
[14] = system: TRZAWR (Wheat, Winter, cv Riband); test: Preemergence herbicidal evaluation; type: in vivo, Triticum aestivum; conditions: preemergence, rated 4-5 weeks after treatment
Summary of the method: as §2

[15] = system: ECHORC (Echinochloa oryzoides); test: Flooded paddy, preemergence weed control; type: in vivo, Echinochloa oryzoides (Ard.) Fritsch.; conditions: rated 3-4 weeks after treatment, 0-9 rating scale
Summary of the method: (§3)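 Plants were established from seed or propagating organs in flooded silt loam, with the water surface held 1.5 to 3 cm above the soil for the entire experiment. Injury was assessed visually against a control and given a 0-9 score.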

[16] = system: CYPSE (Cyperus serotinus); test: Flooded paddy, preemergence weed control; type: in vivo, Rottb.; conditions: rated 3-4 weeks after treatment, 0-9 rating scale
Summary of the method: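 Seeds or propagules were planted 0.5 cm deep in silt loam and flooded to 1.5–3 cm. Compounds in 50/50 v/v aqueous/acetone were pipetted into the flood water at about 0.0080 to 0.1250 kg/ha. After 3–4 weeks in the greenhouse, effect was rated visually on a 0–9 scale versus untreated control.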

[17] = system: SAGPY (Sagittaria pygmaea); test: Flooded paddy, preemergence weed control; type: in vivo, L.; conditions: rated 3-4 weeks after treatment, 0-9 rating scale
Summary of the method: as §3

ORYSAT (Rice, Tebonnet) [18] = test: Flooded paddy, post-transplant rice tolerance; type: in vivo, Oryza sativa, (L.) Tebonnet; conditions: flooded paddy, post-transplant rice, rated 3-4 weeks after treatment, 0-9 rating scale
Summary of the method: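 Scores (0-9) reflect visual injury relative to untreated plants in flooded silt loam. Each pot held two transplanted ten-day-old seedlings under 1.5 to 3 cm standing water in the greenhouse.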

For Cn1c(C(F)(F)F)cc(=O)n(-c2ccc3snc(C4OCCS4)c3c2)c1=O (centres unmarked) [Compound 31, 1-methyl-3-[3-(1,3-oxathiolan-2-yl)-1,2-benzisothiazol-5-yl]-6-(trifluoromethyl)uracil], the “Postemergence herbicidal rating, ABUTH” value ([1]; rate 0.0320 kg/ha) was 9.0, the “Postemergence herbicidal rating, ABUTH” value ([1]; rate 0.0620 kg/ha) was 9.0 and the “Postemergence herbicidal rating, AMBEL” value ([2]; rate 0.0320 kg/ha) was 9.0. For the same compound, the “Postemergence herbicidal rating, AMBEL” value ([2]; rate 0.0620 kg/ha) was 9.0, the “Postemergence herbicidal rating, CASOB” value ([3]; rate 0.0320 kg/ha) was 5.0 and the “Postemergence herbicidal rating, CASOB” value ([3]; rate 0.0620 kg/ha) was 8.0. For the same compound, the “Postemergence herbicidal rating, CHEAL” value ([4]; rate 0.0320 kg/ha) was 9.0, the “Postemergence herbicidal rating, CHEAL” value ([4]; rate 0.0620 kg/ha) was 9.0 and the “Postemergence herbicidal rating, IPOHE” value ([5]; rate 0.0320 kg/ha) was 9.0. For the same compound, the “Postemergence herbicidal rating, IPOHE” value ([5]; rate 0.0620 kg/ha) was 9.0, the “Postemergence herbicidal rating, ECHCG” value ([6]; rate 0.0320 kg/ha) was 2.0 and the “Postemergence herbicidal rating, ECHCG” value ([6]; rate 0.0620 kg/ha) was 2.0. The “Postemergence herbicidal rating, ORYSAT” value (ORYSAT (Rice, Tebonnet) [7]; rate 0.0320 kg/ha) was 3.5, the “Postemergence herbicidal rating, ORYSAT” value (ORYSAT (Rice, Tebonnet) [7]; rate 0.0620 kg/ha) was 5.5 and the “Postemergence herbicidal rating, TRZAWR” value ([8]; rate 0.0320 kg/ha) was 5.0. The “Postemergence herbicidal rating, TRZAWR” value ([8]; rate 0.0620 kg/ha) was 5.5, the “Postemergence herbicidal rating, ZEAMX” value (ZEAMX (Corn, Field); rate 0.0320 kg/ha) was 5.5 and the “Postemergence herbicidal rating, ZEAMX” value (ZEAMX (Corn, Field); rate 0.0620 kg/ha) was 5.5. The “ABUTH preemergence herbicidal rating” value ([9]; Rate 0.0620 kg/ha) was 8.3, the “ABUTH preemergence herbicidal rating” value ([9]; Rate 0.1250 kg/ha) was 9.0 and the “ABUTH preemergence herbicidal rating” value ([9]; Rate 0.2500 kg/ha) was 9.0. The “AMBEL preemergence herbicidal rating” value ([10]; Rate 0.0620 kg/ha) was 9.0, the “AMBEL preemergence herbicidal rating” value ([10]; Rate 0.1250 kg/ha) was 9.0 and the “AMBEL preemergence herbicidal rating” value ([10]; Rate 0.2500 kg/ha) was 9.0. For the same compound, the “CASOB preemergence herbicidal rating” value ([11]; Rate 0.0620 kg/ha) was 5.0, the “CASOB preemergence herbicidal rating” value ([11]; Rate 0.1250 kg/ha) was 8.0 and the “CASOB preemergence herbicidal rating” value ([11]; Rate 0.2500 kg/ha) was 9.0. The “CHEAL preemergence herbicidal rating” value ([12]; Rate 0.0620 kg/ha) was 9.0, the “CHEAL preemergence herbicidal rating” value ([12]; Rate 0.1250 kg/ha) was 9.0 and the “CHEAL preemergence herbicidal rating” value ([12]; Rate 0.2500 kg/ha) was 9.0. The “ORYSAT preemergence herbicidal rating” value (ORYSAT (Rice, Tebonnet) [13]; Rate 0.0620 kg/ha) was 4.0, the “ORYSAT preemergence herbicidal rating” value (ORYSAT (Rice, Tebonnet) [13]; Rate 0.1250 kg/ha) was 7.7 and the “ORYSAT preemergence herbicidal rating” value (ORYSAT (Rice, Tebonnet) [13]; Rate 0.2500 kg/ha) was 8.5. For the same compound, the “TRZAWR preemergence herbicidal rating” value ([14]; Rate 0.0620 kg/ha) was 7.0, the “TRZAWR preemergence herbicidal rating” value ([14]; Rate 0.1250 kg/ha) was 8.0 and the “TRZAWR preemergence herbicidal rating” value ([14]; Rate 0.2500 kg/ha) was 9.0. For the same compound, the “herbicidal rating, ECHORC” value ([15]; rate 0.0080 kg/ha) was 3.0, the “herbicidal rating, ECHORC” value ([15]; rate 0.0320 kg/ha) was 8.0 and the “herbicidal rating, ECHORC” value ([15]; rate 0.1250 kg/ha) was 9.0. For the same compound, the “herbicidal rating, CYPSE” value ([16]; rate 0.0320 kg/ha) was 4.0, the “herbicidal rating, CYPSE” value ([16]; rate 0.1250 kg/ha) was 5.0 and the “herbicidal rating, SAGPY” value ([17]; rate 0.0080 kg/ha) was 0.0. For the same compound, the “herbicidal rating, SAGPY” value ([17]; rate 0.0320 kg/ha) was 9.0, the “herbicidal rating, SAGPY” value ([17]; rate 0.1250 kg/ha) was 9.0 and the “herbicidal rating, ORYSAT (rice tolerance)” value (ORYSAT (Rice, Tebonnet) [18]; rate 0.0080 kg/ha) was 0.0. For the same compound, the “herbicidal rating, ORYSAT (rice tolerance)” value (ORYSAT (Rice, Tebonnet) [18]; rate 0.0320 kg/ha) was 7.5 and the “herbicidal rating, ORYSAT (rice tolerance)” value (ORYSAT (Rice, Tebonnet) [18]; rate 0.1250 kg/ha) was 9.0.
